From PubChem BioAssay AID504322 (Emory University Molecular Libraries Screening Center, 2011) come the findings set out here.

The source made the active and inactive calls. The rule behind the calls is not given here.

For the assay, the system named is CHOP reporter cell assay, percent of control. Kind of assay: CHOP reporter inhibitor potency, dose response, cell-based (AID 504322).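 Note: CHO cells carrying a CHOP reporter stimulated with tunicamycin to induce ER stress; potency is for inhibition of the stress-induced reporter signal.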
The term IC50 denotes the concentration that inhibits the measured activity by half. Turning to `COc1ccc(NC(=O)c2cc(-c3cc(C)cc(C)c3O)n[nH]2)cc1Cl`, the IC50 is 8.79 µM (inactive).

As to `CCSCCc1nnc(NC(=O)Nc2cccc(C(F)(F)F)c2)s1`, the IC50 was 6.82 µM (inactive).

As for `Cc1cc(C(=O)N/N=C/c2ccc(-c3cccc(Cl)c3Cl)o2)n[nH]1`, the IC50 is 5.27 µM (inactive).

On to `CCOC(=O)C1=C(c2ccccc2)O/C(=C(/C#N)C(F)(F)F)S1`, for which the IC50 is 6.28 µM (inactive).

Consider `CCOC(=O)C1=C(C)NC(C)=C(C(=O)OCC)C1/C=C/c1ccccc1`, for which the IC50 was > 10 µM (inactive).

On to `CNc1ccc2oc(C[C@H]3O[C@@]4(CC[C@H]3C)O[C@H]([C@H](C)C(=O)c3ccc[nH]3)[C@H](C)C[C@H]4C)nc2c1C(=O)O`, for which the IC50 was < 0.16 µM.

With `COc1cc(/C=C/C(=O)OC2CC3CCC2(C)C3(C)C)ccc1O` (stereo not given), the IC50 was 9.52 µM (inactive).

Consider `COC(=O)/C(=C1/Oc2cc(C)oc(=O)c2S1)C(F)(F)F`, for which the IC50 was 4.93 µM.

Turning to `COc1ccc(NS(=O)(=O)c2ccc(O)c(NC(=O)c3cc4c(C)nn(-c5ccc(F)cc5)c4s3)c2)cc1`, the IC50 was 6.99 µM (inactive).

Regarding `COC(=O)c1c(NC(=O)Nc2ccc(Cl)cc2)sc(C)c1C`, the IC50 is 9.33 µM (inactive).

Turning to `CC(C)c1ccc(NC(=O)CSc2nc(-c3ccccc3F)nc3nc[nH]c23)cc1`, the IC50 is 9.99 µM (inactive).

As for `O=C(N/N=C/c1cccc(F)c1)c1c(O)c2ccccc2[nH]c1=O`, the IC50 was 6.48 µM (inactive).

On to `CC(C)(C)C(=O)Nc1ccc(-c2nc3ccccc3c(=O)o2)cc1`, for which the IC50 is 0.7 µM (inactive).

As for `Fc1ccc(Nc2nc(NCc3ccco3)c3ccccc3n2)cc1`, the IC50 is > 10 µM (inactive).

Consider `CNc1nc(Sc2cccc(C(F)(F)F)c2)cc(C(F)(F)F)n1`, for which the IC50 was > 10 µM (inactive).

For the compound `Cc1cccc(/C=C/C(=O)c2cc(Br)ccc(=O)c2O)c1`, the IC50 was 8.57 µM (inactive).

`Cc1cc(C)cc(OC2CCCCC2NS(=O)(=O)c2ccccc2)c1` (stereo not given): the IC50 was > 10 µM (inactive).

On to `CCC1(c2ccc(F)cc2)NC(=O)N(CC(=O)Nc2ccc(-c3nc4ccc(C)cc4s3)cc2)C1=O` (stereo not given), for which the IC50 was 1.54 µM.

Turning to `CCCCCCCCCCCCCCCC[n+]1cccc(C(=O)N(CC)CC)c1`, the IC50 was 5.06 µM (inactive).

Turning to `O=C(NCc1ccccc1)c1cc(-c2ccncc2)nc2ccc(S(=O)(=O)N3CCOCC3)cc12`, the IC50 was 9.8 µM (inactive).

For `CCC1CCCCN1S(=O)(=O)c1ccc(C(=O)Nc2nnc(-c3ccccc3Cl)o2)cc1` (stereo not given), the IC50 was 9.92 µM (inactive).

Take `C=CCn1c(O)c(C(CC)=Nc2ccc(N(CC)CC)cc2)c(=O)[nH]c1=O`: the IC50 was 2.56 µM.

Take `Cc1ccc2nc(NC(=O)CSCC(=O)OCC(=O)c3ccc(Br)cc3)sc2c1`: the IC50 is 5.35 µM (inactive).

As to `CCNc1nc(Oc2c(Cl)cccc2Cl)cc(C(F)(F)F)n1`, the IC50 was 2.74 µM.

Turning to `CN(C)c1ccc(C(CNS(=O)(=O)c2ccc(F)c(F)c2)c2c[nH]c3ccccc23)cc1` (stereo not given), the IC50 is 6.39 µM (inactive).

`O=C1NC[C@@H](Cc2cccc3ccccc23)N(CCc2cc(C(F)(F)F)cc(C(F)(F)F)c2)C1=O`: the IC50 was 9.02 µM (inactive).

`Cc1ccc(-c2cc3c(nn2)-c2ccccc2C3=O)cc1`: the IC50 is 6.03 µM (inactive).

In the case of `COc1ccc(CCN2C(=O)c3[nH]nc(-c4ccccc4O)c3C2c2cccc(Cl)c2)cc1` (stereo not given), the IC50 was > 10 µM (inactive).

Turning to `Cc1ccc(C(C(=O)NC2CCCCC2)N(C(=O)Cc2c[nH]c3ccccc23)c2ccccc2C)o1` (stereo not given), the IC50 was > 10 µM (inactive).

In the case of `Cc1ccc(-n2c(=O)[nH]c3c(C(N)=O)nc(-c4ccc(C)o4)nc32)cc1`, the IC50 is > 10 µM (inactive).

In the case of `O=C(Nc1ccccc1)Nc1cc(OCC(F)(F)F)cc(OCC(F)(F)F)c1`, the IC50 was 2.34 µM.

Take `CC(C)(C)c1ccc(S(=O)(=O)NCC(=O)Nc2sc3c(c2C(N)=O)CCCC3)cc1`: the IC50 was 9.83 µM (inactive).

In the case of `Cc1cc(Cl)ccc1OCC(=O)N[C@@H](Cc1ccccc1)c1nc2ccccc2[nH]1`, the IC50 is 9.23 µM (inactive).

`FC(F)(F)c1ccc(/C=N/NC(=S)NC2CCCCC2)cc1`: the IC50 was 5.03 µM.

`O=C(OCn1ncc(Br)c(Br)c1=O)c1c(F)cccc1F`: the IC50 was 0.76 µM.

For `CCc1ccc(NP(=O)(Oc2ccccc2F)Oc2ccccc2F)cc1`, the IC50 was 9.66 µM (inactive).

In the case of `CC(C)=C1C2CCC1C(C(=O)Nc1sc(C)c(-c3ccc(C(C)C)cc3)c1C(N)=O)C2C(=O)O` (stereo not given), the IC50 was 4.8 µM.

Take `Cc1ccc(/C=N/NC(=O)CSCc2ccc(Cl)cc2)cc1`: the IC50 is 9.83 µM (inactive).

Turning to `CCCCCCn1c(CN2CCCC(C)C2)nc2c1c(=O)n(C)c(=O)n2C` (stereo not given), the IC50 is > 10 µM (inactive).

In the case of `CCCCCn1c(=O)c(C(=O)Nc2nc3ccccc3[nH]2)c(O)c2ccccc21`, the IC50 was 4.96 µM.

For the compound `O=C(OCC(F)(F)F)c1cccc(COc2ccc3ccccc3c2)c1`, the IC50 is 1.26 µM.

Turning to `Cc1ccc(N=C2SC(C(=O)Nc3ccc(OC(F)(F)F)cc3)C(N)=C2C(=O)Nc2c(C)cc(C)cc2C)cc1` (stereo not given), the IC50 was > 10 µM (inactive).

As for `Cn1c(=O)c([N+](=O)[O-])c(Cl)c2ccccc21`, the IC50 was 3.34 µM.

Turning to `CCOc1ccc(-n2c(SCC(=O)Nc3ccc(Br)cc3)nc3n[nH]c(C)c3c2=N)cc1`, the IC50 is 8.02 µM (inactive).

Take `CC(C)(C)c1nnc(N/N=C/c2cc(Br)ccc2O)n(N)c1=O`: the IC50 is 5.11 µM (inactive).

`O=C1c2ccc3c4c(ccc(c24)C(=O)N1c1cccc(O)c1)C(=O)N(c1cccc(O)c1)C3=O`: the IC50 is 9.81 µM (inactive).

Regarding `CCCCC(CC)C(=O)Oc1ccc(O)c(C(C)(C)C)c1` (stereo not given), the IC50 was 2.37 µM (inactive).

On to `CC(C)(C)c1ccc(OCC(=O)N/N=C/C2CC=CCC2)cc1` (stereo not given), for which the IC50 was 7.48 µM (inactive).

`CC(C)(C)c1cc(S(=O)(=O)CCc2ccccn2)cc(C(C)(C)C)c1F`: the IC50 is 3.6 µM.

`O=c1oc2ccccc2c(Cl)c1CN1CCCCC1`: the IC50 is 9.26 µM (inactive).

As for `CCCC(=O)N1CCN(c2ccc(NC(=O)c3cc4ccccc4o3)cc2Cl)CC1`, the IC50 is 5.4 µM (inactive).

For `O=C(COc1ccc(Cl)cc1Cl)NCCC1=CCCCC1`, the IC50 was 7.77 µM (inactive).

On to `CC1CCC(C(C)C)C(OC(=O)COC(=O)c2cc(O)ccc2N)C1` (stereo not given), for which the IC50 is 4.09 µM (inactive).

Regarding `O=[N+]([O-])c1ccc(/C=N/n2c(C3CCCCC3)n[nH]c2=S)cc1`, the IC50 is 9.52 µM (inactive).

`CCOC(=O)c1[nH]c2ccc(Cl)cc2c1-c1ccccc1`: the IC50 was 9.7 µM (inactive).

On to `C=CS(=O)(=O)c1ccc(Oc2ccc(S(=O)(=O)C=C)cc2)cc1`, for which the IC50 was 1.7 µM.

`O=C1C(Nc2ccc(O)cc2)=C/C(=N/S(=O)(=O)c2cccs2)c2ccccc21`: the IC50 is 1.19 µM.

Consider `Nc1c(C(=O)Nc2ccc(S(=O)(=O)N3CCCC3)cc2)sc2nc3ccc(OC(F)(F)F)cc3cc12`, for which the IC50 was 6.79 µM (inactive).

In the case of `Cc1cccc(OCc2n(CC(=O)OC3CC(C)CCC3C(C)C)c3ccccc3[n+]2C)c1` (stereo not given), the IC50 is > 10 µM (inactive).

Take `C#CC(=O)N(c1cccc(OC)c1)C(C(=O)NC1CCCC1)c1cccs1` (stereo not given): the IC50 is 4.53 µM.

In the case of `Cc1nc2ccccn2c1C(=O)N=Nc1c(O)n(CCC(C)C)c2ccccc12`, the IC50 is > 10 µM (inactive).

Turning to `CC(C)Oc1cc(NC(=O)CS(=O)CC(=O)Nc2cccc(C(F)(F)F)c2)c(Cl)cc1Cl` (stereo not given), the IC50 is 7.99 µM (inactive).

Turning to `COc1ccc(NC(=O)/C(Cl)=C(/Cl)S(=O)Cc2ccc(Cl)cc2)cn1` (stereo not given), the IC50 was 1.99 µM.

Turning to `O=C1NCN(c2ccccc2)C12CCN(CCCC(c1ccc(F)cc1)c1ccc(F)cc1)CC2`, the IC50 was 7.76 µM (inactive).

Turning to `O=C1CC(Sc2nnnn2-c2ccccc2)C(=O)N1c1cccc(Cl)c1` (stereo not given), the IC50 is > 10 µM (inactive).

As to `COCCCn1c(N)c(C(=O)NCCC(C)C)c2nc3ccccc3nc21`, the IC50 was 9.46 µM (inactive).

As to `CCOc1cc(/C=N/NC(=O)Cc2ccc(C(F)(F)F)cc2[N+](=O)[O-])c(Br)cc1OC`, the IC50 is 4.6 µM.

Consider `NC(=O)c1ccc(C(F)(F)F)n(Cc2c(Cl)cccc2Cl)c1=O`, for which the IC50 was 9.4 µM (inactive).

With `Cc1cccc(Nc2nc(N)c([N+](=O)[O-])c(N3CC(C)CC(C)C3)n2)c1` (stereo not given), the IC50 is > 10 µM (inactive).

Turning to `Cc1[nH]c2ccccc2c1/C=N/NC(=O)C1CC1(c1ccccc1)c1ccccc1` (stereo not given), the IC50 was > 10 µM (inactive).

Consider `COc1cc(/C=C2\CC/C(=C\c3cc(OC)c(O)c(OC)c3)C2=O)cc(OC)c1O`, for which the IC50 was 1.84 µM (inactive).

As for `Cc1cccc(NS(=O)(=O)c2ccc(C3CCCCC3)cc2)c1`, the IC50 was 6.93 µM (inactive).

Turning to `COCCn1c(=NC(=O)/C=C/c2cccs2)sc2cc(NC(C)=O)ccc21`, the IC50 was > 10 µM (inactive).

With `CC(=O)Nc1ccc(NC2=Nc3ccccc3N3C2=Nc2c(c(C)nn2-c2ccccc2)C3c2ccccc2)cc1` (stereo not given), the IC50 was 4.24 µM.

`COc1ccccc1-c1cc(C(F)(F)F)nc(S(=O)(=O)CCCC(=O)NC(C)C)n1`: the IC50 is 9.35 µM (inactive).

In the case of `C=C1C(=O)O[C@@H]2C[C@@H](C)[C@@H]3C4OC4C(=O)[C@@]3(C)[C@@H](O)[C@H]12` (stereo not given in full), the IC50 was 9.5 µM (inactive).

For the compound `COc1cc(OC)nc(-n2ncc(Br)c(Br)c2=O)n1`, the IC50 is 1.93 µM.

`O=C(NC(c1ccccc1)c1c(O)ccc2ccccc12)c1ccccc1Cl` (stereo not given): the IC50 is > 10 µM (inactive).

Take `Cc1nc(NC(=O)CSc2nc3cccnc3n2Cc2ccccc2)sc1C`: the IC50 was > 10 µM (inactive).

`CCN=C1NN=C(c2cc(C)n(Cc3ccco3)c2C)CS1`: the half-inhibitory concentration (IC50) is < 0.16 µM.

As to `Clc1ccc2c(N/N=C/c3ccc(Br)cc3)ccnc2c1`, the IC50 is 9.92 µM (inactive).

As to `OC(CNCCc1ccc(C(F)(F)F)cc1)COc1cccc2ccccc12` (stereo not given), the IC50 is < 0.16 µM (inactive).

On to `OC(COCC(F)(F)C(F)(F)C(F)(F)C(F)F)Cn1c2ccccc2c2ccccc21` (stereo not given), for which the 50% inhibitory concentration (IC50) was 2.39 µM.

Regarding `Cc1ccc2nc(Nc3ccc4[nH]c(=O)[nH]c4c3)c(-n3nc(C)cc3C)nc2c1`, the IC50 is 6.47 µM.

In the case of `COc1cc(-c2nc3ccc4ccccc4c3c3c2CCC3)cc(OC)c1O`, the IC50 is > 10 µM (inactive).
